Reference: ChEMBL document CHEMBL4177529, “Penicilones A-D, Anti-MRSA Azaphilones from the Marine-Derived Fungus Penicillium janthinellum HK1-6” (2017)
Converted amounts (≈) assume the structure as drawn.

Tests used:
Staphylococcus aureus [1] = assay: Antibacterial activity against methicillin-resistant Staphylococcus aureus ATCC 43300 by XTT assay
Enterococcus faecalis = assay: microbe, parasite or virus in culture; format: functional; details: ATCC 51299
Description: Antibacterial activity against vancomycin-susceptible Enterococcus faecalis ATCC 51299 by XTT assay

Escherichia coli = assay: Antibacterial activity against Escherichia coli ATCC 25922 by XTT assay; format: functional
Staphylococcus aureus [2] = assay: Antibacterial activity against methicillin-susceptible Staphylococcus aureus ATCC 25923 by XTT assay
Enterococcus faecium = assay: Antibacterial activity against vancomycin-susceptible Enterococcus faecium ATCC 35667 by XTT assay
Staphylococcus aureus [3] = assay: Antibacterial activity against methicillin-susceptible Staphylococcus aureus ATCC 29213 by XTT assay
Staphylococcus aureus [4] = assay: Antibacterial activity against methicillin-resistant Staphylococcus aureus ATCC 33591 by XTT assay

Cc1cccc(O)c1C1=CC2=C(Cl)C(=O)[C@@](C)(O)C(=O)C2=CO1
MIC (Staphylococcus aureus [1]): > 50 mg/L
MIC (Enterococcus faecalis): 50 mg/L (≈ 150 µM)
MIC (Escherichia coli): > 50 mg/L
MIC (Staphylococcus aureus [2]): 25 mg/L (≈ 75.1 µM)
MIC (Enterococcus faecium): 50 mg/L (≈ 150 µM)
MIC (Staphylococcus aureus [3]): > 50 mg/L
MIC (Staphylococcus aureus [4]): 50 mg/L (≈ 150 µM)

CCCCCCC(C)/C=C(\C)C(=O)O[C@@]1(C)C(=O)C2=COC(c3c(C)cccc3O)=CC2=C(Cl)C1=O (stereo partly specified)
MIC (Staphylococcus aureus [1]): 6.25 mg/L (≈ 12.2 µM)
MIC (Enterococcus faecalis): 6.25 mg/L (≈ 12.2 µM)
MIC (Escherichia coli): > 50 mg/L
MIC (Staphylococcus aureus [2]): 12.5 mg/L (≈ 24.4 µM)
MIC (Enterococcus faecium): 12.5 mg/L (≈ 24.4 µM)
MIC (Staphylococcus aureus [3]): 3.13 mg/L (≈ 6.1 µM)
MIC (Staphylococcus aureus [4]): 6.25 mg/L (≈ 12.2 µM)

CCCCCCC(C)/C=C(\C)C(=O)O[C@@]1(C)C(=O)C=C2C=C(c3c(C)cccc3O)OC=C2C1=O (stereo partly specified)
MIC (Staphylococcus aureus [1]): 3.13 mg/L (≈ 6.54 µM)
MIC (Enterococcus faecalis): 3.13 mg/L (≈ 6.54 µM)
MIC (Escherichia coli): > 50 mg/L
MIC (Staphylococcus aureus [2]): 3.13 mg/L (≈ 6.54 µM)
MIC (Enterococcus faecium): 3.13 mg/L (≈ 6.54 µM)
MIC (Staphylococcus aureus [3]): 3.13 mg/L (≈ 6.54 µM)
MIC (Staphylococcus aureus [4]): 3.13 mg/L (≈ 6.54 µM)

CCCCCCC(C)/C=C(\C)C(=O)O[C@@]1(C)C(=O)C=C2C=C(C3=C(C)C[C@@H](O)CC3=O)OC=C2C1=O (stereo partly specified)
MIC (Staphylococcus aureus [1]): > 50 mg/L
MIC (Enterococcus faecalis): > 50 mg/L
MIC (Escherichia coli): > 50 mg/L
MIC (Staphylococcus aureus [2]): > 50 mg/L
MIC (Enterococcus faecium): > 50 mg/L
MIC (Staphylococcus aureus [3]): > 50 mg/L
MIC (Staphylococcus aureus [4]): > 50 mg/L

CCCCCCC(C)/C=C(\C)C(=O)O[C@@]1(C)C(=O)C2=COC(C3=C(C)CC(O)CC3=O)=CC2=C(Cl)C1=O (stereo partly specified)
MIC (Staphylococcus aureus [1]): 6.25 mg/L (≈ 11.8 µM)
MIC (Enterococcus faecalis): 12.5 mg/L (≈ 23.5 µM)
MIC (Escherichia coli): > 50 mg/L
MIC (Staphylococcus aureus [2]): 12.5 mg/L (≈ 23.5 µM)
MIC (Enterococcus faecium): 12.5 mg/L (≈ 23.5 µM)
MIC (Staphylococcus aureus [3]): 6.25 mg/L (≈ 11.8 µM)
MIC (Staphylococcus aureus [4]): 6.25 mg/L (≈ 11.8 µM)

Cc1onc(-c2ccccc2)c1C(=O)N[C@@H]1C(=O)N2[C@@H]1SC(C)(C)[C@@H]2C(=O)[O-].[Na+]
MIC (Staphylococcus aureus [1]): > 100 mg/L
MIC (Enterococcus faecalis): 50 mg/L
MIC (Escherichia coli): > 100 mg/L
MIC (Staphylococcus aureus [2]): 0.78 mg/L
MIC (Enterococcus faecium): > 100 mg/L
MIC (Staphylococcus aureus [3]): 3.13 mg/L
MIC (Staphylococcus aureus [4]): > 100 mg/L

Cc1cccc(O)c1C1=CC2=CC(=O)[C@](C)(O)C(=O)C2=CO1
MIC (Staphylococcus aureus [1]): > 50 mg/L
MIC (Enterococcus faecalis): > 50 mg/L
MIC (Escherichia coli): > 50 mg/L
MIC (Staphylococcus aureus [2]): > 50 mg/L
MIC (Enterococcus faecium): > 50 mg/L
MIC (Staphylococcus aureus [3]): > 50 mg/L
MIC (Staphylococcus aureus [4]): > 50 mg/L

CN[C@H](CC(C)C)C(=O)N[C@H]1C(=O)N[C@@H](CC(N)=O)C(=O)N[C@H]2C(=O)N[C@H]3C(=O)N[C@H](C(=O)N[C@H](C(=O)O)c4cc(O)cc(O)c4-c4cc3ccc4O)[C@H](O)c3ccc(c(Cl)c3)Oc3cc2cc(c3O[C@@H]2O[C@H](CO)[C@@H](O)[C@H](O)[C@H]2O[C@H]2C[C@](C)(N)[C@H](O)[C@H](C)O2)Oc2ccc(cc2Cl)[C@H]1O.Cl [VANCOMYCIN HYDROCHLORIDE]
MIC (Staphylococcus aureus [1]): 0.39 mg/L
MIC (Enterococcus faecalis): 6.25 mg/L
MIC (Escherichia coli): > 100 mg/L
MIC (Staphylococcus aureus [2]): 1.56 mg/L
MIC (Enterococcus faecium): 0.39 mg/L
MIC (Staphylococcus aureus [3]): 0.39 mg/L
MIC (Staphylococcus aureus [4]): 0.78 mg/L
